Experimental data published in patent US20230366033A1, “METHODS FOR TREATING CANCERS WITH INHIBITORS TARGETING THE ROLE OF GRB2 IN DNA REPAIR” (Board of Regents, The University of Texas System, priority 2020, published 2023).

Tests used:
Type in all cases: cell-based
[1] = system: GRB2-KO HeLa cells reconstituted with K109R mutant GRB2; experiment: SRB assay of olaparib-induced cytotoxicity; conditions: Homo sapiens, GRB2-KO cells reconstituted with K109R GRB2, sulforhodamine B assay
Source text: (§1) FIGS. 7A-7F. GRB2 KO sensitizes cells to PARPi. (FIG. 7A) MRE11 depletion levels with two different shRNA (KD1 and KD2) in U2OS cells with normal level of GRB2 (Ctrl) and GRB2-knockout (KO). (FIG. 7B) DR-GFP reporter assay in MRE11 knockdown control (Ctrl) and GRB2-KO U2OS cells. (FIG. 7C) DR-GFP reporter assay in PTEN-knockdown and/or GRB2-KO U2OS cells. (FIG. 7D) SRB assay of olaparib-induced cytotoxicity in control HeLa cells, GRB2-KO cells and GRB2-KO cells reconstituted with WT or K109R mutant GRB2. IC50 values are shown. (FIG. 7E) Clonogenic assay evaluating the effect of a PARPi on colony formation of HeLa cells. Cells were treated with the indicated concentrations of the PARPi olaparib and cultured for 10 days, then the resulting colonies were visualized with crystal violet staining and counted by Gelcount instrument. Parental control (WT), GRB2-KO (KO), ^WTGRB2 (KO+GRB2) and ^K109RGRB2 (KO+K109R) reconstituted HeLa cells. For each concentration on the X-axis, the columns represent, from left to right, WT, GRB2 KO, KO+GRB2, and KO+K109R. ***, p≤0.001; NS, not significant. (FIG. 7F) Bar graph representing Annexin-V/propidium iodide combined labeling and flow cytometry analysis of olaparib-treated control (WT), GRB2-KO, reconstituted ^WTGRB2(KO+GRB2) and K109R mutant (KO+K109R) HeLa cells. Cells were treated with either DMSO or 50 μM olaparib for 72 h. For each treatment group on the X-axis, the columns represent, from left to right, WT, GRB2 KO, KO+GRB2, and KO+K109R. All data are representative of three independent experiments. The significance was analyzed by two-sided student's t-test. *, p≤0.05; **, p≤0.01; ***, p≤0.001; NS, not significant.
(§2) Cell culture. HEK293T, NIH3T3 and A431 cells (purchased from ATCC) and mouse embryonic fibroblasts (MEFs) and H2AX-KO MEFs (gifts from Andre Nussenzweig, Center for Cancer Research, National Cancer Institute) were maintained in Dulbecco's modified Eagle's high-glucose medium (DMEM). HeLa cells (ATCC) were maintained in RPMI 1640 medium, HAP1 cells (Horizon Discovery) were maintained in Iscove's Modified Dulbecco's medium. U2OS cells (ATCC) were maintained in McCoy's 5A medium. Media were supplemented with 10% (vol/vol) fetal bovine serum (FBS) and 1% antibiotic/antimycotic (Lonza) in a humidified incubator with 10% CO2. Stable HEK293T cells containing Strep-tagged GRB2 or GRB2 mutants were produced as described previously (Ahmed et al., 2013). The I-SecI reporter assay (a generous gift from Jeremy Stark, City of Hope) was performed as described previously(Gunn and Stark, 2012). The sulforhodamine B (SRB) cytotoxicity and colony formation assays were performed as described previously(Houl et al., 2019).

[2] = system: GRB2-KO HeLa cells reconstituted with WT GRB2; experiment: SRB assay of olaparib-induced cytotoxicity; conditions: Homo sapiens, GRB2-KO cells reconstituted with WT GRB2, sulforhodamine B assay
Source text: as §1, §2

GRB2-KO HeLa cells [3] = experiment: SRB assay of olaparib-induced cytotoxicity; conditions: sulforhodamine B assay
Source text: as §1, §2

control HeLa cells = experiment: SRB assay of olaparib-induced cytotoxicity; conditions: Homo sapiens; WT control HeLa cells, sulforhodamine B assay
Source text: as §1, §2

GRB2-KO HeLa cells [4] = experiment: Annexin V/PI staining assay, flow cytometry; conditions: 50 μM olaparib for 72 h
Source text: as §1
(§3) Annexin V/PI staining assay. To determine the percentage of olaparib-induced apoptotic cells, an Annexin V-propidium iodide (PI) staining assay was used according to the standard protocol (Life Technologies). […] After incubation for 15 min at room temperature in the dark, samples were analyzed on a flow cytometer (FACSCanto IL, BD Biosciences) for the detection of Annexin V- and PI-positive subpopulations. […]

[5] = system: K109R mutant (KO+K109R) HeLa cells; experiment: Annexin V/PI staining assay, flow cytometry; conditions: K109R GRB2 reconstituted cells, 50 μM olaparib for 72 h
Source text: as §1, §3

control (WT) HeLa cells = experiment: Annexin V/PI staining assay, flow cytometry; conditions: 50 μM olaparib for 72 h
Source text: as §1, §3

GRB2-KO HeLa cells [6] = experiment: Clonogenic survival assay with olaparib; conditions: cultured for 10 days
Source text: as §1, with “significant. […]” for “significant. (FIG. 7F) Bar graph representing Annexin-V/propidium iodide combined labeling and flow cytometry analysis of olaparib-treated control (WT), GRB2-KO, reconstituted ^WTGRB2(KO+GRB2) and K109R mutant (KO+K109R) HeLa cells. Cells were treated with either DMSO or 50 μM olaparib for 72 h. For each treatment group on the X-axis, the columns represent, from left to right, WT, GRB2 KO, KO+GRB2, and KO+K109R. All data are representative of three independent experiments.”, “significant. […]” for “significant.”

[7] = system: K109R GRB2 reconstituted HeLa cells; experiment: Clonogenic survival assay with olaparib; conditions: cultured for 10 days
Source text: as §1, with “significant. […]” for “significant. (FIG. 7F) Bar graph representing Annexin-V/propidium iodide combined labeling and flow cytometry analysis of olaparib-treated control (WT), GRB2-KO, reconstituted ^WTGRB2(KO+GRB2) and K109R mutant (KO+K109R) HeLa cells. Cells were treated with either DMSO or 50 μM olaparib for 72 h. For each treatment group on the X-axis, the columns represent, from left to right, WT, GRB2 KO, KO+GRB2, and KO+K109R. All data are representative of three independent experiments.”, “significant. […]” for “significant.”

Q: How did the IC50 [1] turn out when `O=C(c1cc(Cc2n[nH]c(=O)c3ccccc23)ccc1F)N1CCN(C(=O)C2CC2)CC1` [olaparib] was run?
A: 20 ± 3 µM

Q: What about the IC50 [2] of the same molecule?
A: 164 ± 47 µM

Q: And the IC50 (GRB2-KO HeLa cells [3]; Homo sapiens, HeLa, GRB2-KO cells)?
A: 18 ± 2.9 µM

Q: And the “sensitivity to olaparib, GRB2-KO cells versus WT control cells” value (GRB2-KO HeLa cells [3])?
A: 7 times

Q: And the IC50 (control HeLa cells)?
A: 124 ± 41 µM

Q: And the olaparib-induced apoptosis (GRB2-KO HeLa cells [4])?
A: 60%

Q: And the olaparib-induced apoptosis phenotype [5]?
A: failed to rescue the phenotype

Q: What about the olaparib-induced apoptosis (control (WT) HeLa cells) of the same molecule?
A: 20%

Q: And the “colony formation in response to olaparib” value (GRB2-KO HeLa cells [6])?
A: severe reduction in colony formation

Q: And the “colony formation in response to olaparib” value [7]?
A: severe reduction in colony formation
